Results: patent publication US10385021B2, “Carbamate compound and use thereof” (SUMITOMO CHEMICAL COMPANY, LIMITED, priority 2015, dated 2019)

System: wheat rust fungus (Puccinia recondita)
Assay: Test Example 2: wheat rust, foliar spray before inoculation, lesion area
Format: in vivo
Settings: 200 ppm foliar spray, wheat (Shirogane), inoculated 5 days after spraying, formulation per Formulation Example 6

SMILES: COC(=O)Nc1ccccc1COc1ccc(-c2ccccn2)cc1 [methyl N-(2-{[4-(pyridine-2-yl)phenoxy)methyl}phenyl)carbamate]
- area of the lesion relative to untreated wheat: ≥ 70%
